# Test results published in US6737383B1, “Herbicidal oxadiazolidines” (priority 1999, dated 2004).
# Assays:
# giant foxtail = assay: Test B pre/postemergence giant foxtail; type: in vivo, Setaria faberii
# How it was run: (§1)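 Test chemicals in a non-phytotoxic solvent mixture with surfactant were sprayed preemergence onto planted seeds and postemergence onto plants 2 to 18 cm tall (1- to 4-leaf stage). After twelve to sixteen days in a greenhouse, injury was visually rated against untreated controls from 0 (no effect) to 10 (complete control).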
# rape = assay: Test B pre/postemergence rape; type: in vivo, Brassica napus
# How it was run: as §1
# morningglory = assay: Test B pre/postemergence morningglory; type: in vivo, Ipomoea hederacea
# How it was run: as §1
# pigweed = assay: Test B pre/postemergence pigweed; type: in vivo, Amaranthus retroflexus
# How it was run: as §1
# rice = assay: Test B flood test rice; type: in vivo, Oryza sativa
# How it was run: (§2)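 Plants were grown to the 2-leaf stage before treatment with test chemical, then held in a greenhouse for twelve to sixteen days. Injury was visually rated against untreated controls on a 0–10 scale, where 0 is no effect and 10 is complete control.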
# duck salad = assay: Test B flood test duck salad; type: in vivo, Heteranthera limosa
# How it was run: as §2
# blackgrass = assay: Test B pre/postemergence blackgrass; type: in vivo, Alopecurus myosuroides
# How it was run: as §1
# velvetleaf = assay: Test B pre/postemergence velvetleaf; type: in vivo, Abutilon theophrasti
# How it was run: as §1
# purple nutsedge = assay: Test B pre/postemergence purple nutsedge; type: in vivo, Cyperus rotundus
# How it was run: as §1
# sugar beet = assay: Test B pre/postemergence sugar beet; type: in vivo, Beta vulgaris
# How it was run: as §1
# smallflower flatsedge = assay: Test B flood test smallflower flatsedge; type: in vivo, Cyperus difformis
# How it was run: as §2
# wild oat = assay: Test B pre/postemergence wild oat; type: in vivo, Avena fatua
# How it was run: as §1
# soybean = assay: Test B pre/postemergence soybean; type: in vivo, Glycine max
# How it was run: as §1
# cocklebur = assay: Test B pre/postemergence cocklebur; type: in vivo, Xanthium strumarium
# How it was run: as §1
# wheat = assay: Test B pre/postemergence wheat; type: in vivo, Triticum aestivum
# How it was run: as §1
# bamyardgrass = assay: Test B flood test barnyardgrass; type: in vivo, Echinochloa crus-galli
# How it was run: as §2
# [1] = Preemergence, Rate 62 g/ha, scale of 0 to 10 where 0 is no effect and 10 is complete control
# [2] = Rate 62 g/ha, Postemergence, scale 0 to 10 (0 no effect, 10 complete control)
# [3] = Rate 125 g/ha, Postemergence, scale of 0 to 10 where 0 is no effect and 10 is complete control
# [4] = Rate 250 g/ha, Postemergence, scale of 0 to 10 where 0 is no effect and 10 is complete control
# [5] = Preemergence, Rate 250 g/ha, scale of 0 to 10 where 0 is no effect and 10 is complete control
# [6] = Preemergence, Rate 500 g/ha, scale of 0 to 10 where 0 is no effect and 10 is complete control
# [7] = Rate 62 g/ha, headed Pre-emergence (flood test species), scale 0 to 10 (0 no effect, 10 complete control)
# [8] = Rate 125 g/ha, Pre-emergence, flood test species, scale 0 to 10 where 0 is no effect and 10 is complete control
# [9] = Rate 250 g/ha, Pre-emergence, flood-test species, scale 0 to 10, 0 is no effect, 10 is complete control
# [10] = Rate 500 g/ha, Pre-emergence, flood test species, scale 0 to 10 (0 no effect, 10 complete control)
# [11] = Rate 500 g/ha, Postemergence, scale 0 to 10, 0 no effect, 10 complete control
compound,measurement,setting,value
CCN(C(=O)n1oc(=O)n(C2CC2)c1=O)C1CCCCC1 [Compound 298],Giant foxtail plant response rating,giant foxtail; [1],0
same,Giant foxtail plant response rating (0 to 10 scale),"giant foxtail; Preemergence, Rate 125 g/ha",0
same,Giant foxtail plant response rating,giant foxtail; [2],0
same,Giant foxtail plant response rating,giant foxtail; [3],0
same,"Plant response rating, Giant foxtail",giant foxtail; [4],0
same,Rape plant response rating,rape; [1],0
same,Rape plant response rating (0 to 10 scale),"rape; Preemergence, Rate 125 g/ha",0
same,Rape plant response rating,rape; [5],0
same,"Plant response rating, Rape",rape; [6],0
same,Rape plant response rating,rape; [2],0
same,Rape plant response rating,rape; [3],0
same,"Plant response rating, Rape",rape; [4],0
same,Morningglory plant response rating,morningglory; [1],0
same,Morningglory plant response rating (0 to 10 scale),"morningglory; Preemergence, Rate 125 g/ha",0
same,Morningglory plant response rating,morningglory; [5],0
same,"Plant response rating, Morningglory",morningglory; [6],0
same,Morningglory plant response rating,morningglory; [2],0
same,Morningglory plant response rating,morningglory; [3],3
same,"Plant response rating, Morningglory",morningglory; [4],3
same,Redroot pigweed plant response rating,pigweed; [1],0
same,Redroot pigweed plant response rating (0 to 10 scale),"pigweed; Preemergence, Rate 125 g/ha",0
same,Redroot pigweed plant response rating,pigweed; [5],0
same,"Plant response rating, Redroot pigweed",pigweed; [6],0
same,Redroot pigweed plant response rating,pigweed; [2],0
same,Redroot pigweed plant response rating,pigweed; [3],0
same,"Plant response rating, Redroot pigweed",pigweed; [4],0
same,Rice plant response rating,rice; [7],0
same,Rice plant response rating,rice; [8],0
same,Rice plant response rating,rice; [9],0
same,Rice plant response rating,rice; [10],0
same,Ducksalad plant response rating,duck salad; [7],0
same,Ducksalad plant response rating,duck salad; [8],0
same,Ducksalad plant response rating,duck salad; [9],0
same,Ducksalad plant response rating,duck salad; [10],0
same,Blackgrass plant response rating,blackgrass; [1],0
same,Blackgrass plant response rating,blackgrass; [5],0
same,"Plant response rating, Blackgrass",blackgrass; [6],0
same,Blackgrass plant response rating,blackgrass; [2],0
same,Blackgrass plant response rating,blackgrass; [3],0
same,"Plant response rating, Blackgrass",blackgrass; [4],0
same,Blackgrass plant response rating,blackgrass; [11],0
same,Velvetleaf plant response rating,velvetleaf; [1],0
same,Velvetleaf plant response rating (0 to 10 scale),"velvetleaf; Preemergence, Rate 125 g/ha",0
same,Velvetleaf plant response rating,velvetleaf; [5],0
same,"Plant response rating, Velvetleaf",velvetleaf; [6],0
same,Velvetleaf plant response rating,velvetleaf; [2],0
same,Velvetleaf plant response rating,velvetleaf; [3],0
same,"Plant response rating, Velvetleaf",velvetleaf; [4],0
same,Nutsedge plant response rating,purple nutsedge; [1],0
same,Nutsedge plant response rating (0 to 10 scale),"purple nutsedge; Preemergence, Rate 125 g/ha",0
same,Nutsedge plant response rating,purple nutsedge; [5],0
same,"Plant response rating, Nutsedge",purple nutsedge; [6],0
same,Nutsedge plant response rating,purple nutsedge; [2],0
same,Nutsedge plant response rating,purple nutsedge; [3],0
same,"Plant response rating, Nutsedge",purple nutsedge; [4],0
same,Sugarbeets plant response rating,sugar beet; [1],0
same,Sugarbeets plant response rating (0 to 10 scale),"sugar beet; Preemergence, Rate 125 g/ha",0
same,Sugarbeets plant response rating,sugar beet; [5],0
same,"Plant response rating, Sugarbeets",sugar beet; [6],0
same,Sugarbeets plant response rating,sugar beet; [2],0
same,Sugarbeets plant response rating,sugar beet; [3],0
same,"Plant response rating, Sugarbeets",sugar beet; [4],0
same,S. Flatsedge plant response rating,smallflower flatsedge; [7],0
same,S. Flatsedge plant response rating,smallflower flatsedge; [8],0
same,S. Flatsedge plant response rating,smallflower flatsedge; [9],0
same,S. Flatsedge plant response rating,smallflower flatsedge; [10],0
same,Wild oats plant response rating,wild oat; [1],0
same,Wild oats plant response rating (0 to 10 scale),"wild oat; Preemergence, Rate 125 g/ha",0
same,Wild oats plant response rating,wild oat; [5],0
same,"Plant response rating, Wild oats",wild oat; [6],0
same,Wild oats plant response rating,wild oat; [2],0
same,Wild oats plant response rating,wild oat; [3],0
same,"Plant response rating, Wild oats",wild oat; [4],0
same,Soybean plant response rating,soybean; [1],0
same,Soybean plant response rating (0 to 10 scale),"soybean; Preemergence, Rate 125 g/ha",0
same,Soybean plant response rating,soybean; [5],0
same,"Plant response rating, Soybean",soybean; [6],0
same,Soybean plant response rating,soybean; [2],0
same,Soybean plant response rating,soybean; [3],3
same,"Plant response rating, Soybean",soybean; [4],3
same,Cocklebur plant response rating,cocklebur; [1],0
same,Cocklebur plant response rating (0 to 10 scale),"cocklebur; Preemergence, Rate 125 g/ha",0
same,Cocklebur plant response rating,cocklebur; [5],0
same,"Plant response rating, Cocklebur",cocklebur; [6],0
same,Cocklebur plant response rating,cocklebur; [2],0
same,Cocklebur plant response rating,cocklebur; [3],0
same,"Plant response rating, Cocklebur",cocklebur; [4],0
same,Cocklebur plant response rating,cocklebur; [11],0
same,Wheat plant response rating,wheat; [1],0
same,Wheat plant response rating (0 to 10 scale),"wheat; Preemergence, Rate 125 g/ha",0
same,Wheat plant response rating,wheat; [5],0
same,"Plant response rating, Wheat",wheat; [6],0
same,Wheat plant response rating,wheat; [2],0
same,Wheat plant response rating,wheat; [3],0
same,"Plant response rating, Wheat",wheat; [4],0
same,Barnyardgrass plant response rating,bamyardgrass; [7],0
same,Barnyardgrass plant response rating,bamyardgrass; [8],0
same,Barnyardgrass plant response rating,bamyardgrass; [9],0
same,Barnyardgrass plant response rating,bamyardgrass; [10],0
Cc1cccc(C(C)(C)C)c1-n1c(=O)on(C(=O)N(c2ccccc2)C(C)C)c1=O [Compound 303],Giant foxtail plant response rating,giant foxtail; [1],0
same,Giant foxtail plant response rating (0 to 10 scale),"giant foxtail; Preemergence, Rate 125 g/ha",0
same,Giant foxtail plant response rating,giant foxtail; [5],0
same,Giant foxtail plant response rating,giant foxtail; [6],0
same,Giant foxtail plant response rating,giant foxtail; [2],0
same,Giant foxtail plant response rating,giant foxtail; [3],0
same,"Plant response rating, Giant foxtail",giant foxtail; [4],0
same,Rape plant response rating,rape; [1],0
same,Rape plant response rating (0 to 10 scale),"rape; Preemergence, Rate 125 g/ha",0
same,Rape plant response rating,rape; [5],0
same,Rape plant response rating,rape; [6],0
same,Rape plant response rating,rape; [2],0
same,Rape plant response rating,rape; [3],0
same,"Plant response rating, Rape",rape; [4],0
same,Morningglory plant response rating,morningglory; [1],0
same,Morningglory plant response rating (0 to 10 scale),"morningglory; Preemergence, Rate 125 g/ha",0
same,Morningglory plant response rating,morningglory; [5],0
same,Morningglory plant response rating,morningglory; [6],3
same,Morningglory plant response rating,morningglory; [2],0
same,Morningglory plant response rating,morningglory; [3],0
same,"Plant response rating, Morningglory",morningglory; [4],0
same,Redroot pigweed plant response rating,pigweed; [1],0
same,Redroot pigweed plant response rating (0 to 10 scale),"pigweed; Preemergence, Rate 125 g/ha",0
same,Redroot pigweed plant response rating,pigweed; [5],0
same,Redroot pigweed plant response rating,pigweed; [6],0
same,Redroot pigweed plant response rating,pigweed; [2],0
same,Redroot pigweed plant response rating,pigweed; [3],0
same,"Plant response rating, Redroot pigweed",pigweed; [4],2
same,Rice plant response rating,rice; [7],0
same,Rice plant response rating,rice; [8],0
same,Rice plant response rating,rice; [9],0
same,Rice plant response rating,rice; [10],0
same,Ducksalad plant response rating,duck salad; [7],0
same,Ducksalad plant response rating,duck salad; [8],0
same,Ducksalad plant response rating,duck salad; [9],0
same,Ducksalad plant response rating,duck salad; [10],0
same,Blackgrass plant response rating,blackgrass; [1],0
same,Blackgrass plant response rating (0 to 10 scale),"blackgrass; Preemergence, Rate 125 g/ha",0
same,Blackgrass plant response rating,blackgrass; [5],0
same,Blackgrass plant response rating,blackgrass; [6],0
same,Blackgrass plant response rating,blackgrass; [2],0
same,Blackgrass plant response rating,blackgrass; [3],0
same,"Plant response rating, Blackgrass",blackgrass; [4],0
same,Blackgrass plant response rating,blackgrass; [11],0
same,Velvetleaf plant response rating,velvetleaf; [1],0
same,Velvetleaf plant response rating (0 to 10 scale),"velvetleaf; Preemergence, Rate 125 g/ha",0
same,Velvetleaf plant response rating,velvetleaf; [5],0
same,Velvetleaf plant response rating,velvetleaf; [6],0
same,Velvetleaf plant response rating,velvetleaf; [2],0
same,Velvetleaf plant response rating,velvetleaf; [3],0
same,"Plant response rating, Velvetleaf",velvetleaf; [4],0
same,Nutsedge plant response rating,purple nutsedge; [1],0
same,Nutsedge plant response rating,purple nutsedge; [5],0
same,Nutsedge plant response rating,purple nutsedge; [6],0
same,Nutsedge plant response rating,purple nutsedge; [2],0
same,Nutsedge plant response rating,purple nutsedge; [3],0
same,"Plant response rating, Nutsedge",purple nutsedge; [4],0
same,Sugarbeets plant response rating,sugar beet; [1],0
same,Sugarbeets plant response rating (0 to 10 scale),"sugar beet; Preemergence, Rate 125 g/ha",0
same,Sugarbeets plant response rating,sugar beet; [5],0
same,Sugarbeets plant response rating,sugar beet; [6],0
same,Sugarbeets plant response rating,sugar beet; [2],0
same,Sugarbeets plant response rating,sugar beet; [3],0
same,"Plant response rating, Sugarbeets",sugar beet; [4],0
same,S. Flatsedge plant response rating,smallflower flatsedge; [7],0
same,S. Flatsedge plant response rating,smallflower flatsedge; [8],0
same,S. Flatsedge plant response rating,smallflower flatsedge; [9],0
same,S. Flatsedge plant response rating,smallflower flatsedge; [10],0
same,Wild oats plant response rating,wild oat; [1],0
same,Wild oats plant response rating (0 to 10 scale),"wild oat; Preemergence, Rate 125 g/ha",0
same,Wild oats plant response rating,wild oat; [5],0
same,Wild oats plant response rating,wild oat; [6],0
same,Wild oats plant response rating,wild oat; [2],0
same,Wild oats plant response rating,wild oat; [3],0
same,"Plant response rating, Wild oats",wild oat; [4],0
same,Soybean plant response rating,soybean; [1],0
same,Soybean plant response rating (0 to 10 scale),"soybean; Preemergence, Rate 125 g/ha",0
same,Soybean plant response rating,soybean; [5],0
same,Soybean plant response rating,soybean; [6],0
same,Soybean plant response rating,soybean; [2],2
same,Soybean plant response rating,soybean; [3],2
same,"Plant response rating, Soybean",soybean; [4],3
same,Cocklebur plant response rating,cocklebur; [1],0
same,Cocklebur plant response rating (0 to 10 scale),"cocklebur; Preemergence, Rate 125 g/ha",0
same,Cocklebur plant response rating,cocklebur; [5],0
same,Cocklebur plant response rating,cocklebur; [6],0
same,Cocklebur plant response rating,cocklebur; [2],0
same,Cocklebur plant response rating,cocklebur; [3],0
same,"Plant response rating, Cocklebur",cocklebur; [4],0
same,Cocklebur plant response rating,cocklebur; [11],0
same,Wheat plant response rating,wheat; [1],0
same,Wheat plant response rating (0 to 10 scale),"wheat; Preemergence, Rate 125 g/ha",0
same,Wheat plant response rating,wheat; [5],0
same,Wheat plant response rating,wheat; [6],0
same,Wheat plant response rating,wheat; [2],0
same,Wheat plant response rating,wheat; [3],0
same,"Plant response rating, Wheat",wheat; [4],0
same,Barnyardgrass plant response rating,bamyardgrass; [7],0
same,Barnyardgrass plant response rating,bamyardgrass; [8],0
same,Barnyardgrass plant response rating,bamyardgrass; [9],0
same,Barnyardgrass plant response rating,bamyardgrass; [10],0
